In patent publication US20050192349A1, “Isolation of the peroxisome proliferation-activated receptor-gamma (PPARgamma) ligand and methods of use thereof” (Beth Israel Deaconess Medical Center, Inc., priority 2002, published 2005):

Tests used:
[1] = cited from earlier work; for LDL levels: human, in vivo
[2] = system: PPARγ ligand production in 5B2 cells; assay: Effect of COX and LOX inhibitors on PPARγ ligand production in differentiating 5B2 cells (β-gal activity); assay type: cell-based, murine; conditions: day 2
Source text: To test whether PPARγ ligand production was dependent upon cyclooxygenase (COX) or lipooxygenase (LOX), which would be expected if the ligand were a prostaglandin, the effect of COX and LOX inhibitors on PPARγ ligand production during 3T3-L1 differentiation into adipocytes was examined by measuring the β-gal activity in the stable cell line, 5B2.
5B2 cells were stimulated to differentiation into adipocytes as described above. The media containing the mixture of insulin, DEX and MIX is called d0 media on FIG. 10. In the experimental samples, d0 media contained the indicated COX or LOX inhibitor. The fold induction of β-gal activity of day 2 cells was compared to cells of day 2 stimulated in the absence of hormones (g media).

3T3-L1 = conditions: cited from earlier work
PPARγ1 = assay: Full-length PPARγ1 / p3DR1-luc luciferase reporter in CV-1 cells stimulated with conditioned media; assay type: cell-based; conditions: CV-1, pCMV-PPARγ and p3DR1-luc, with or without NBD1-VP16; various concentrations
Method: CV-1 cells were transfected with an expression vector encoding full-length PPARγ1 (pCMV-PPARγ) and a reporter plasmid p3DR1-1uc. p3DR1-luc contains a triple copy of PPARγ response element, Direct Repeat 1, linked to the luciferase gene. The cells were transfected with the reporter with or without NBD1-VP16 expression vector. The transfected cells were incubated with or without conditioned media in the absence or presence of various concentrations of PD068235. The cells were washed and lysed as described above for the β-gal assay, except that 50 μl of the lysate were mixed with 100 μl assay buffer and measured for 15 sec. in the Luminometer. Assay buffer consisted of 25 mM glycylglycine, 15 mM MgSO4, 4 mM EGTA, 1 mM DTT, 15 mM KH2PO4, 6 mM ATP and 100 μl of a 0.225 mg/ml luciferin stock solution.

[3] = molecular target: T1, PPARγ-LBD fused to GAL4-DBD (Mus musculus, UniProt P37238); assay: β-gal activity in 3T3-L1 cell lines 5B2 and 5B3 stably transfected with the feedback monitoring system; assay type: cell-based, murine; set-up: expressed in transfected cells
T1 sequence (P37238 238-503 limits assumed): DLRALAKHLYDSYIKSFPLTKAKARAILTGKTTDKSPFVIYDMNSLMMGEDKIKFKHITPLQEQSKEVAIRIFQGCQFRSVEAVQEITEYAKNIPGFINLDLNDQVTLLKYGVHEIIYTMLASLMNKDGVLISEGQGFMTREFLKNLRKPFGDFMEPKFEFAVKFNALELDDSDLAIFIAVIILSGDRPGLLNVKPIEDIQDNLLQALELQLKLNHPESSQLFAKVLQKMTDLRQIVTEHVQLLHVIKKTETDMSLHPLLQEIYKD

[4] = molecular target: T1, PPARγ-LBD fused to GAL4-DBD; assay: PPARγ ligand monitoring system (Gal4-PPARγ-LBD / pUH-gal β-gal reporter) in transfected CV-1 cells; conditions: 3T3-L1 stimulated 2 days with combinations of Ins, Mix and Dex
Method: The effector and reporter constructs were transfected into either CV-1 cells (monkey kidney cells) or 3T3-L1 cells (murine fibroblast cells capable of being differentiated into adipocytes). Cells were grown according to standard protocols for these cells. For example, 3T3-L1 cells were grown and maintained as fibroblasts in DMEM/high glucose, containing 10% calf serum in a 10% CO2 humidified environment at 37° C. The cells were maintained at a subconfluent level so as to not prematurely arrest cell growth and induce differentiation. The cells were typically split 1:5 or 1:3 every 3 to 4 days. Cells were transfected using Lipofectamine™ 2000 Reagent (Life Technologies™, Carlsbad, Calif.) according to the manufacturers instructions. Cells were plated in 24 well dishes for the assay.
The washed cells were lysed with 200 μl lysis buffer (25 mM glycylglycine, 15 mM MgSO4, 4 mM EGTA, 1 mM DTT, 1% Triton) per well. […] The β-gal activity was measured for 10 sec. in a Luminometer (LB9507, EG&G, Bad Wildbad, Germany).
CV-1 cells were transfected as described above with pUH-G4-PPARγ and pUH-gal, with or without nuclear receptor interaction domain NBD1 of SRC-1 fused with VP16 or inactivated VP16. […] The treated, transfected cells were harvested and β-gal activity measured 48 hrs post-transfection.

PPARγ = molecular target: T2, PPARγ (Homo sapiens, UniProt P37231); conditions: cited from earlier work
T2 sequence (P37231 1-505): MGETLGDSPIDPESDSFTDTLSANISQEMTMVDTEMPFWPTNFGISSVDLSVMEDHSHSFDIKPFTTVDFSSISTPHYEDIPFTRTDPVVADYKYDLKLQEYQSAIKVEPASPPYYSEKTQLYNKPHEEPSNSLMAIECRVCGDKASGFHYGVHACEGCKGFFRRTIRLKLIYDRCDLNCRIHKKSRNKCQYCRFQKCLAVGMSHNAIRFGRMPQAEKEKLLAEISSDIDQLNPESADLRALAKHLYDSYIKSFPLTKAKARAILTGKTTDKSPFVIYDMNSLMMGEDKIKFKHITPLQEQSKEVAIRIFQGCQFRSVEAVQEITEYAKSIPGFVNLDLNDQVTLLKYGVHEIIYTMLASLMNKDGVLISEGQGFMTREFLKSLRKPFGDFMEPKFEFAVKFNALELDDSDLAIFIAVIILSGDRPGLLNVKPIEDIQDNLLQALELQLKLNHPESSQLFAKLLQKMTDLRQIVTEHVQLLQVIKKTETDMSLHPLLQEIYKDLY

Cc1c(C)c2c(c(C)c1O)CCC(C)(COc1ccc(CC3SC(=O)NC3=O)cc1)O2 (stereo not drawn) [Troglitazone]
LDL levels [1]: associated with a rise in LDL levels | liver toxicity ([1]; patients): liver toxicity in some patients

CC(C)c1ccc2c(c1)c(SC(C)(C)C)c(CC(C)(C)C(=O)O)n2Cc1ccc(Cl)cc1 [MK866]
effect on β-gal activity produced by stimulated 5B2 cells ([2]; 5 μM in d0 media): no significant effect

C=CCn1cc([N+](=O)[O-])sc1=NC(=O)C(C)(C)C [PD068235]
3T3-L1 adipocyte differentiation (3T3-L1): prevent 3T3-L1 adipocyte differentiation | inhibition of CM-stimulated PPARγ transcriptional activity (luciferase) (PPARγ1): dose-dependent inhibition of CM-stimulated PPARγ transcriptional activity

CC(C)Cn1c(=O)n(C)c(=O)c2[nH]cnc21 [Mix, methyl iso-butyl xanthine]
induction of β-gal activity by components of the adipogenic mixture ([3]; 5B2 and 5B3, combinations of Ins, 0.5 mM Mix, Dex, day 2): dependent on the stimulation by Mix | ligand production (β-gal activity) on stimulation with cAMP elevating compounds ([3]; 5B2 cells): induced the ligand production of differentiating pre-adipocytes by increasing the intracellular cAMP | ligand production of 3T3-L1 cells (β-gal activity of CV-1 cells incubated with conditioned media) [4]: dependent on stimulation by Mix

CC(Cc1ccc(O)c(O)c1)C(C)Cc1ccc(O)c(O)c1 (stereo not drawn) [NDGA]
effect on β-gal activity produced by stimulated 5B2 cells ([2]; 10 μM in d0 media): no significant effect

COc1ccc2c(c1)c(CC(=O)O)c(C)n2C(=O)c1ccc(Cl)cc1 [Indomethacin]
effect on β-gal activity produced by stimulated 5B2 cells ([2]; 10 μM in d0 media): no significant effect

CCCCCC(O)c1ccc(OCc2ccc3ccccc3n2)cc1 (single isomer, unassigned) [REV 5901-para-isomer]
effect on β-gal activity produced by stimulated 5B2 cells ([2]; 5 μM in d0 media): no significant effect

CN(CCOc1ccc(CC2SC(=O)NC2=O)cc1)c1ccccn1 (stereo not drawn) [rosiglitazone]
LDL levels [1]: associated with a rise in LDL levels

CCCCC/C=C/C=C1/C(=O)C=C[C@@H]1C/C=C\CCCC(=O)O [15-deoxyΔ^12,14PG J2]
Kd (PPARγ; read-out: affinity (dissociation constant) of PPARγ for the ligand): 2 to 50 µM

O=c1cc(-c2ccccc2)oc2cc(O)c(O)c(O)c12 [Baicalein]
effect on β-gal activity produced by stimulated 5B2 cells ([2]; 5 μM in d0 media): no significant effect

CCCCC/C=C\C/C=C\CCCCCCCC(=O)O [linoleic acid]
direct binding to PPARγ (PPARγ): bind directly to PPARγ
